What was measured:
[1] = target: Fibroblast growth factor receptor 2 (Homo sapiens) (UniProt P21802); assay: Inhibition of human FGFR2 catalytic domain expressed in baculovirus assessed as substrate phosphorylation using fluorescence-labelled peptides as substrate at 0.06 uM after 90 mins by microfluidic peptide phosphorylation assay
[2] = target: T1, Serine/threonine-protein kinase DCLK2 (Homo sapiens) (UniProt Q8N568); assay: Inhibition of human full length DCAMKL2 expressed in baculovirus assessed as substrate phosphorylation using fluorescence-labelled peptides as substrate at 420 uM after 90 mins by microfluidic peptide phosphorylation assay
T1 sequence (whole entry): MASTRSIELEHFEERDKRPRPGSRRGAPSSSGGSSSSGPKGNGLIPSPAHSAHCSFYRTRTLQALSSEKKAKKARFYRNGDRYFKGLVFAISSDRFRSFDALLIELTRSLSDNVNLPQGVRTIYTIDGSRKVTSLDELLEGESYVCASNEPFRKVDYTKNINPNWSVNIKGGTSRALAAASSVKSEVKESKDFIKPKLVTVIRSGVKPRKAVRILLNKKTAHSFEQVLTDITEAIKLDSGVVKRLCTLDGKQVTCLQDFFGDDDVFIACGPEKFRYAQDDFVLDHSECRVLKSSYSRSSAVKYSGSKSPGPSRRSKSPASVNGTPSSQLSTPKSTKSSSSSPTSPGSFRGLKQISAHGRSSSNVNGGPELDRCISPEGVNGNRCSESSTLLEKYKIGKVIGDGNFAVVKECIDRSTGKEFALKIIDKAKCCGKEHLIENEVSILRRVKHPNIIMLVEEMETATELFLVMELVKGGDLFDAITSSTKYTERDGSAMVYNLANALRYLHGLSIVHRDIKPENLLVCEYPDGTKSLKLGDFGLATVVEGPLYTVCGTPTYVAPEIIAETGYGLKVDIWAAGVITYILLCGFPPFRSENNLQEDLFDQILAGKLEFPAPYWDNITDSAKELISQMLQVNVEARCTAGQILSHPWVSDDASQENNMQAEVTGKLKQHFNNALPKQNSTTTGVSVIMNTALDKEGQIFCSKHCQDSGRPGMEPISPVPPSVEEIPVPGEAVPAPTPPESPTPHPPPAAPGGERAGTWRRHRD

[3] = target: Protein kinase C gamma type (Homo sapiens) (UniProt P05129); assay: Inhibition of human truncated PKC gamma expressed in baculovirus assessed as substrate phosphorylation using fluorescence-labelled peptides as substrate at 420 uM after 90 mins by microfluidic peptide phosphorylation assay
[4] = target: Serine/threonine-protein kinase Chk2 (Homo sapiens) (UniProt O96017); assay: Inhibition of human full length CHK2 expressed in baculovirus assessed as substrate phosphorylation using fluorescence-labelled peptides as substrate at 0.2 uM after 90 mins by microfluidic peptide phosphorylation assay
[5] = target: T2, Serine/threonine-protein kinase BRSK2 (Homo sapiens) (UniProt Q8IWQ3); assay: Inhibition of human truncated BRSK2 expressed in baculovirus assessed as substrate phosphorylation using fluorescence-labelled peptides as substrate at 0.2 uM after 90 mins by microfluidic peptide phosphorylation assay
T2 sequence (whole entry): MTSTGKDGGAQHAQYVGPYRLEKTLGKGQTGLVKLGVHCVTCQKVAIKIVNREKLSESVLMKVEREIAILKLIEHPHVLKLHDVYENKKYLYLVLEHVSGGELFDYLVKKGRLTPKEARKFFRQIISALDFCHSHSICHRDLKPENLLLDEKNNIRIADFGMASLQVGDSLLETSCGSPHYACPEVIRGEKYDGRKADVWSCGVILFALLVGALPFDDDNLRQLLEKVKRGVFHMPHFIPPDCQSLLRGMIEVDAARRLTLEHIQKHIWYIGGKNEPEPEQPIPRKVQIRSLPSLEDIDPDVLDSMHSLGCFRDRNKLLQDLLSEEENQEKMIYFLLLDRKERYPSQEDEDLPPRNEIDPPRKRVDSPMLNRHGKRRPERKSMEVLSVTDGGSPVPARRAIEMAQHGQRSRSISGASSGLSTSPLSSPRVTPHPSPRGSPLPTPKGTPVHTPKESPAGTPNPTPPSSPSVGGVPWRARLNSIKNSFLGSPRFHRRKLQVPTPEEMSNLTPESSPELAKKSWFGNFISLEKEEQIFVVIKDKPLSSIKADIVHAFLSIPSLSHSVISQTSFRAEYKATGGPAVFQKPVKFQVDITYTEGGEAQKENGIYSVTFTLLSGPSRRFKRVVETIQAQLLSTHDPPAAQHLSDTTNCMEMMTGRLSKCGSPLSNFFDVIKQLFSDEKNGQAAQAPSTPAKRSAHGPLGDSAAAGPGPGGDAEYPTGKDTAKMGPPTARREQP

[6] = target: Calcium/calmodulin-dependent protein kinase type II subunit gamma (Homo sapiens) (UniProt Q13555); assay: Inhibition of human CAMK2 gamma catalytic domain expressed in baculovirus assessed as substrate phosphorylation using fluorescence-labelled peptides as substrate at 0.2 uM after 90 mins by microfluidic peptide phosphorylation assay
[7] = target: Tyrosine-protein kinase Lyn (Homo sapiens) (UniProt P07948); details: 0.1 uM
Description: Inhibition of human full length LYN expressed in baculovirus assessed as substrate phosphorylation using fluorescence-labelled peptides as substrate at 0.1 uM after 90 mins by microfluidic peptide phosphorylation assay

[8] = target: Protein kinase C beta type (Homo sapiens) (UniProt P05771); assay: Inhibition of human full length PKC beta2 expressed in baculovirus assessed as substrate phosphorylation using fluorescence-labelled peptides as substrate at 9 uM after 90 mins by microfluidic peptide phosphorylation assay
[9] = target: Protein kinase C gamma type (Homo sapiens) (UniProt P05129); assay: Inhibition of human truncated PKC gamma expressed in baculovirus assessed as substrate phosphorylation using fluorescence-labelled peptides as substrate at 95 uM after 90 mins by microfluidic peptide phosphorylation assay
[10] = target: T3, Serine/threonine-protein kinase 3 (Homo sapiens) (UniProt Q13188); assay: Inhibition of human full length MST2 expressed in baculovirus assessed as substrate phosphorylation using fluorescence-labelled peptides as substrate at 2 uM after 90 mins by microfluidic peptide phosphorylation assay
T3 sequence (whole entry): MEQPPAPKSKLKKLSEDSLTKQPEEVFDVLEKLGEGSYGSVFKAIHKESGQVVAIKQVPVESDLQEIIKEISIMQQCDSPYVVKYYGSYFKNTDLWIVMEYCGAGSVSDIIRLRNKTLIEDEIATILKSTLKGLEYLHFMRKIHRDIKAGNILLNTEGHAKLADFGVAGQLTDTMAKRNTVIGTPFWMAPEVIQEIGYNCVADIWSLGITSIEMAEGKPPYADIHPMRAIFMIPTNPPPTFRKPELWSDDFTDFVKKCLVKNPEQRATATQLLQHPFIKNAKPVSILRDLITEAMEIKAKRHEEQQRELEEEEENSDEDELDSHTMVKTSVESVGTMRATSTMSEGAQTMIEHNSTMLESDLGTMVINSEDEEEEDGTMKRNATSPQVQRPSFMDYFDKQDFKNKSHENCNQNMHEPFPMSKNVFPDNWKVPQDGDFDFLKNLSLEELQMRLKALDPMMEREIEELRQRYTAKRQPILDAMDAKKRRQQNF

[11] = target: Fibroblast growth factor receptor 1 (Homo sapiens) (UniProt P11362); assay: Inhibition of human FGFR1 catalytic domain expressed in baculovirus assessed as substrate phosphorylation using fluorescence-labelled peptides as substrate at 2 uM after 90 mins by microfluidic peptide phosphorylation assay
Fibroblast growth factor receptor 1 (Homo sapiens), sequence (P11362 22-822 limits assumed): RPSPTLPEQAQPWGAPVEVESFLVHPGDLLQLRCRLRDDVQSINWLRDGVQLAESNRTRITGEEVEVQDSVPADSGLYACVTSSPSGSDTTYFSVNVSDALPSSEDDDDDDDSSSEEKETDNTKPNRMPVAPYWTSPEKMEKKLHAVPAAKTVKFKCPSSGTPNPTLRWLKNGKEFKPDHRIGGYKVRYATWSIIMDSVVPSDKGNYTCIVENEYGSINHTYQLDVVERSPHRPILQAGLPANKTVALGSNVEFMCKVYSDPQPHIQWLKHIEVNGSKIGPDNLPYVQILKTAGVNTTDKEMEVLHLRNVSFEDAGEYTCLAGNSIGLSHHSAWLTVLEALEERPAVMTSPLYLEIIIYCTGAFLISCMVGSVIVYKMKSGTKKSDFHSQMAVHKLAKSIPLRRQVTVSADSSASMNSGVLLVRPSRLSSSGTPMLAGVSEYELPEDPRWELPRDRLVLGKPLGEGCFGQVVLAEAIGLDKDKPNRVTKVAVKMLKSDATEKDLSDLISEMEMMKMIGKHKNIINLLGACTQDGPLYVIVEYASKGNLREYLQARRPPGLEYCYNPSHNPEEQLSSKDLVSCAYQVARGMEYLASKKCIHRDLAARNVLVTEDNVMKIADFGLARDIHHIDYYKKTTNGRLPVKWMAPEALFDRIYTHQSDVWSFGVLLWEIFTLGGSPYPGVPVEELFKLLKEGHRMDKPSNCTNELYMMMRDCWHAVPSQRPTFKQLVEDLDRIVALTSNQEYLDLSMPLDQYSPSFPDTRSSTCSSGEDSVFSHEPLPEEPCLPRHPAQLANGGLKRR

Serine/threonine-protein kinase Chk2 (Homo sapiens), sequence (O96017 whole entry, the tested form may be a part): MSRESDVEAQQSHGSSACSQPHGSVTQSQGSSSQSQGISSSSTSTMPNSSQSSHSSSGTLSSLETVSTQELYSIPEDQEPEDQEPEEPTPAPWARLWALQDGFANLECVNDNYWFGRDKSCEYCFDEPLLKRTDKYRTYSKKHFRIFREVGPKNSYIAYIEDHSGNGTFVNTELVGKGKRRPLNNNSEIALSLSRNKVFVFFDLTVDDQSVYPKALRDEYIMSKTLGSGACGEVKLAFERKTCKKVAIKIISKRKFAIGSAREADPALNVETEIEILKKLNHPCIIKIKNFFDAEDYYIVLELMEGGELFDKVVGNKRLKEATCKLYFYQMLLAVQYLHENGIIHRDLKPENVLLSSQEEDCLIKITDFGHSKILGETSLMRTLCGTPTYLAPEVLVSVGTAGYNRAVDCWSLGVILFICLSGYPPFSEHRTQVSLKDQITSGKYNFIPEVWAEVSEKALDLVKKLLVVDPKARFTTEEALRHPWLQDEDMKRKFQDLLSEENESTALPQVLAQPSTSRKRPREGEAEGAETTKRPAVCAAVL
Tyrosine-protein kinase Lyn (Homo sapiens), sequence (P07948 2-512 limits assumed): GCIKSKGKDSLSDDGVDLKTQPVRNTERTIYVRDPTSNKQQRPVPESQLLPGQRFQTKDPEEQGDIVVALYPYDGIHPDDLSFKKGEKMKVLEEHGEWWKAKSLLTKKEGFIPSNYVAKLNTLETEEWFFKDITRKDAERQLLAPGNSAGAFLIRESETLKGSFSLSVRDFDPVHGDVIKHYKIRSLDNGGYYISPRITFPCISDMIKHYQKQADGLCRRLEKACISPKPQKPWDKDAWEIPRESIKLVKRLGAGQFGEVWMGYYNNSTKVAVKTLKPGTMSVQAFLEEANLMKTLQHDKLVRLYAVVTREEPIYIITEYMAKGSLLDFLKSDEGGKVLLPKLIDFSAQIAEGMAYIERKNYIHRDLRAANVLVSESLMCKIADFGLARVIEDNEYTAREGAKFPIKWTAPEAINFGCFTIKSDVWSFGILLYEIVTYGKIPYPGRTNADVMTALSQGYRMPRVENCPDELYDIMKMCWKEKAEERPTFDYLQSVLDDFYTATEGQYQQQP
Protein kinase C beta type (Homo sapiens), sequence (P05771 2-671 limits assumed): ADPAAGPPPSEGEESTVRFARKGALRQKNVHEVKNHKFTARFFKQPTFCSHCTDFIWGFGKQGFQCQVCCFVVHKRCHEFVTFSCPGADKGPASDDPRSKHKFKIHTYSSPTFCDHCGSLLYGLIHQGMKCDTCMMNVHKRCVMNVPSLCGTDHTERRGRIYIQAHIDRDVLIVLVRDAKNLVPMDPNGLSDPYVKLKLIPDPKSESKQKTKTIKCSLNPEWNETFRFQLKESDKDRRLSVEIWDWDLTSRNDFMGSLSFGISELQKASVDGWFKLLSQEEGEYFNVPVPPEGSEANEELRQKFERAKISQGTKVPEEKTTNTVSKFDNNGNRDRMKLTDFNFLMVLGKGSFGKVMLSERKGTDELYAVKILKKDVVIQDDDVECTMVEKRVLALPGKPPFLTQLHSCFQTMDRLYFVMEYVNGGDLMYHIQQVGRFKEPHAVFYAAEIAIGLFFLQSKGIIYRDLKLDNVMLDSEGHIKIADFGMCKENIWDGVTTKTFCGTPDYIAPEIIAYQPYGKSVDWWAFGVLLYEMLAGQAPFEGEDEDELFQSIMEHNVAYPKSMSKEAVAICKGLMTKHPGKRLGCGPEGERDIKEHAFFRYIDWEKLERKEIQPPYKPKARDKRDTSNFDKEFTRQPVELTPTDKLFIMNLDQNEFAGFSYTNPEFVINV
Fibroblast growth factor receptor 2 (Homo sapiens), sequence (P21802 22-821 limits assumed): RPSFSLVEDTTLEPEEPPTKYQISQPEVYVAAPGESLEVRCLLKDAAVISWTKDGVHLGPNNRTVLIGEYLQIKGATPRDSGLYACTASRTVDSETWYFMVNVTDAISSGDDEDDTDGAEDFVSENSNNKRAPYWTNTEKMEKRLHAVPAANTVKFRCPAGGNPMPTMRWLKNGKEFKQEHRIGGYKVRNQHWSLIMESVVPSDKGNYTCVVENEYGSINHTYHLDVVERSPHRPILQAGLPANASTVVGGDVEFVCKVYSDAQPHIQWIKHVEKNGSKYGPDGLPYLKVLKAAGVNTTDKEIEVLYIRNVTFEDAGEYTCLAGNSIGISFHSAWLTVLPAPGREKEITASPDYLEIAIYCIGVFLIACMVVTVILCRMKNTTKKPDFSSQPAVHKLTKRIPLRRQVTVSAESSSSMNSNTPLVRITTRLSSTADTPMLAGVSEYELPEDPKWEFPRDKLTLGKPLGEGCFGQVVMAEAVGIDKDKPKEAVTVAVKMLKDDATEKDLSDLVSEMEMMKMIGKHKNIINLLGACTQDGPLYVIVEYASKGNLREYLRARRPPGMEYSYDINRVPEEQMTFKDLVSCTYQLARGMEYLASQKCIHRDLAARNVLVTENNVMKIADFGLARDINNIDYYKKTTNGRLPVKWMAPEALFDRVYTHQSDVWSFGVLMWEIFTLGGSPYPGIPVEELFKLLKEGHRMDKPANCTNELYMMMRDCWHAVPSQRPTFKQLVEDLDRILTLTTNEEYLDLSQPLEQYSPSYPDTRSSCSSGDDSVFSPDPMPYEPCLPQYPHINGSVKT
Calcium/calmodulin-dependent protein kinase type II subunit gamma (Homo sapiens), sequence (Q13555 whole entry, the tested form may be a part): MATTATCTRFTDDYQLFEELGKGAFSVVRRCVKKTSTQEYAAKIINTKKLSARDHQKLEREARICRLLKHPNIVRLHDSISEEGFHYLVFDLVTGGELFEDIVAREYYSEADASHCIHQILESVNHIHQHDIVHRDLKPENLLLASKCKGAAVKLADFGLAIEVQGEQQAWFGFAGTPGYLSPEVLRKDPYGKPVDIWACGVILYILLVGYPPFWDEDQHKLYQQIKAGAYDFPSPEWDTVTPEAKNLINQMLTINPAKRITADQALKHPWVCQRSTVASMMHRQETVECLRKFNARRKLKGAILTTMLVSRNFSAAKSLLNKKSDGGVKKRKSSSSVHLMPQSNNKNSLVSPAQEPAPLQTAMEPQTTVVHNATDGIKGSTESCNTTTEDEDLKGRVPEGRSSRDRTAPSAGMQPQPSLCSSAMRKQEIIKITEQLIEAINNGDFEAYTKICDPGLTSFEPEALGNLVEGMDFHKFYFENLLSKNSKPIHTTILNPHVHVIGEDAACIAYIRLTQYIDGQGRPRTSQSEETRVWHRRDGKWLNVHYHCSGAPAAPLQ

**Q.** For `NC1(Cc2ccc(Cl)cc2)CCN(c2ncnc3[nH]ccc23)CC1`, which inhibition [1] is on record?
**A.** The inhibition was 0%.

**Q.** Which inhibition [2] does the source give for `c1nc(N2CCOCC2)c2nc[nH]c2n1` here?
**A.** Its inhibition is 41.5%.

**Q.** And the inhibition [3]?
**A.** The inhibition was 66%.

**Q.** What does the source list for `Clc1ccc(C2(c3ccc(-c4ncnc5[nH]cnc45)cc3)CCNCC2)cc1`?
**A.** inhibition [4]: 59%; inhibition [5]: 13%; inhibition [6]: 15%

**Q.** Which inhibition [7] does the source give for `C[C@H](CN(C)C)Oc1nc(Nc2cc3cccc(Cl)c3cn2)cnc1C#N` here?
**A.** Its inhibition is 0%.

**Q.** How did the inhibition [8] turn out when `NCC1CN(c2ncnc3[nH]c4cnccc4c23)CCO1` (stereo unspecified) was run?
**A.** Its inhibition is 23.5%.

**Q.** `NCCc1ccc(-c2ncnc3[nH]cnc23)cc1` was tested. Which inhibition [9] did it give?
**A.** The inhibition was 71%.

**Q.** How did the inhibition [10] turn out when `NC1CCN(c2ncnc3[nH]ccc23)CC1` was run?
**A.** The inhibition was 17.5%.

**Q.** And the inhibition [11]?
**A.** The inhibition was 1.5%.

— ChEMBL document CHEMBL3132769, “Fragment growing to retain or alter the selectivity of anchored kinase hinge-binding fragments” (Medchemcomm, 2014)
